Laboratory results reported in article PMC4629473 (European journal of medicinal chemistry, 2015).
Read-outs that look alike come from different tables or passages of the source.

What was measured:
[1] = biological target: HIV-1 IN recombinant protein (Human immunodeficiency virus type 1 group M subtype B, UniProt P12497); experiment: HIV-1 integrase 3′-processing gel-based assay; assay type: biochemical
HIV-1 = experiment: Antiviral activity against HIV-1 in activated primary human PBM cells; assay type: cell-based; conditions: read-out: EC50 (μM), concentration required to induce 50% of inhibition
Vero cells = experiment: Cytotoxicity in Vero cells; assay type: cell-based
CEM cells = experiment: Cytotoxicity in CEM cells; assay type: cell-based
PBM cells = experiment: Cytotoxicity in normal PBM cells; assay type: cell-based, human

Row | Molecule | IC50 [1] [µM] | EC50 (HIV-1) [µM] | CC50 (Vero cells) [µM] | CC50 (CEM cells) [µM] | CC50 (PBM cells) [µM] | CC50 (Vero cells; read-out: CC50 (μM) VERO, VERO cells, concentration reducing cell growth by 50%) [µM] | CC50 (CEM cells; read-out: CC50 (μM) CEM, CEM cells, concentration reducing cell growth by 50%) [µM] | CC50 (PBM cells; read-out: CC50 (μM) PBM, PBM cells, concentration reducing cell growth by 50%) [µM]
1 | CCOC(=O)c1c(-c2ccccc2)nc(=O)n(Cc2ccc(C(=O)/C=C(\O)C(=O)O)cc2)c1C [4a, 4-[4-[(5-ethoxycarbonyl-6-methyl-2-oxo-4-phenyl-pyrimidin-1-yl)methyl]phenyl]-2-hydroxy-4-oxo-but-2-enoic acid] | > 111 |  |  |  |  |  |  | 
2 | Ethyl (Z)-1-(4-(3-hydroxy-4-isopropoxy-4-oxobut-2-enoyl)benzyl)-4-(4-methoxyphenyl)-2-oxo-6-phenyl-1,2-dihydropyrimidine-5-carboxylate [4′l] |  | 80.6 | > 100 | 25.3 | > 100 |  |  | 
3 | Ethyl (Z)-6-ethyl-1-(4-(3-(3-hydroxy-4-isopropoxy-4-oxobut-2-enoyl)benzyl)benzyl)-2-oxo-4-phenyl-1,2-dihydropyrimidine-5-carboxylate [19′] |  | 36.8 |  |  |  | > 100 | 8.9 | 47.6
